Data published in patent US20220281848A1, “PYRAZOLE-SUBSTITUTED PYRROLIDINONES AS HERBICIDES” (FMC Corporation, priority 2019, published 2022).

Tested on: plants
Assay: Test D pre-emergence, other plants of Tables D1 and D3
Assay type: in vivo
Conditions: for damage to plant, ALOMY / damage to plant, AVEFA / damage to plant, BEAVA / damage to plant, BROTE / damage to plant, BRSNN / damage to plant, HORVW / damage to plant, SINAR: pre-emergence, 100=total damage, 0=no damage; for ABUTH damage to plant (100=total damage; 0=no damage) / AMARE damage to plant (100=total damage; 0=no damage) / DIGSA damage to plant (100=total damage; 0=no damage) / ECHCG damage to plant (100=total damage; 0=no damage) / ORYSA damage to plant (100=total damage; 0=no damage) / PANMI damage to plant (100=total damage; 0=no damage) / SETFA damage to plant (100=total damage; 0=no damage): preemergent
Method in brief: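 Seeds treated with herbicide safener; sown in soil; glasshouse, 16 h light, 65% humidity. Sprayed day 1 (pre) or ~day 12 (post). Spray in 0.2% v/v adjuvant. Scored 0–100 damage: 20 DAA pre, 15 d post.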

In the case of `CN1CC(c2cnn(C)c2C(F)(F)F)C(C(=O)Nc2cccc(F)c2F)C1=O` (racemic) [Compound 25], the “damage to plant, ALOMY” value (rate 15, 20 DAA) is reported as 0, the “damage to plant, AVEFA” value (rate 15, 20 DAA) is reported as 0 and the “damage to plant, BEAVA” value (rate 15, 20 DAA) is reported as 0. The “damage to plant, BROTE” value (rate 15, 20 DAA) was 0, the “damage to plant, BRSNN” value (rate 15, 20 DAA) was 0 and the “damage to plant, HORVW” value (rate 15, 20 DAA) was 0. For the same compound, the “damage to plant, SINAR” value (rate 15, 20 DAA) was 0, the “damage to plant, ALOMY” value (rate 30, 20 DAA) was 0 and the “damage to plant, AVEFA” value (rate 30, 20 DAA) was 0. For the same compound, the “damage to plant, BEAVA” value (rate 30, 20 DAA) was 0, the “damage to plant, BROTE” value (rate 30, 20 DAA) was 0 and the “damage to plant, BRSNN” value (rate 30, 20 DAA) was 0. For the same compound, the “damage to plant, HORVW” value (rate 30, 20 DAA) was 0, the “damage to plant, SINAR” value (rate 30, 20 DAA) was 0 and the “damage to plant, ALOMY” value (rate 60, 20 DAA) was 0. The “damage to plant, AVEFA” value (rate 60, 20 DAA) was 0, the “damage to plant, BEAVA” value (rate 60, 20 DAA) was 0 and the “damage to plant, BROTE” value (rate 60, 20 DAA) was 0. For the same compound, the “damage to plant, BRSNN” value (rate 60, 20 DAA) was 0, the “damage to plant, HORVW” value (rate 60, 20 DAA) was 0 and the “damage to plant, SINAR” value (rate 60, 20 DAA) was 0. The “damage to plant, ALOMY” value (rate 130, 20 DAA) was 0, the “damage to plant, AVEFA” value (rate 130, 20 DAA) was 0 and the “damage to plant, BEAVA” value (rate 130, 20 DAA) was 0. For the same compound, the “damage to plant, BROTE” value (rate 130, 20 DAA) was 0, the “damage to plant, BRSNN” value (rate 130, 20 DAA) was 0 and the “damage to plant, HORVW” value (rate 130, 20 DAA) was 0. For the same compound, the “damage to plant, SINAR” value (rate 130, 20 DAA) was 0, the “damage to plant, ALOMY” value (rate 250, 20 DAA) was 0 and the “damage to plant, AVEFA” value (rate 250, 20 DAA) was 0. For the same compound, the “damage to plant, BEAVA” value (rate 250, 20 DAA) was 0, the “damage to plant, BROTE” value (rate 250, 20 DAA) was 0 and the “damage to plant, BRSNN” value (rate 250, 20 DAA) was 0. For the same compound, the “damage to plant, HORVW” value (rate 250, 20 DAA) was 0, the “damage to plant, SINAR” value (rate 250, 20 DAA) was 0 and the “damage to plant, ALOMY” value (rate 500, 20 DAA) was 0. For the same compound, the “damage to plant, AVEFA” value (rate 500, 20 DAA) was 0, the “damage to plant, BEAVA” value (rate 500, 20 DAA) was 0 and the “damage to plant, BROTE” value (rate 500, 20 DAA) was 10. For the same compound, the “damage to plant, BRSNN” value (rate 500, 20 DAA) was 20, the “damage to plant, HORVW” value (rate 500, 20 DAA) was 0 and the “damage to plant, SINAR” value (rate 500, 20 DAA) was 0. For the same compound, the “ABUTH damage to plant (100=total damage; 0=no damage)” value (Rates 15, 20 DAA) was 0, the “AMARE damage to plant (100=total damage; 0=no damage)” value (Rates 15, 20 DAA) was 0 and the “DIGSA damage to plant (100=total damage; 0=no damage)” value (Rates 15, 20 DAA) was 0. The “ECHCG damage to plant (100=total damage; 0=no damage)” value (Rates 15, 20 DAA) was 0, the “ORYSA damage to plant (100=total damage; 0=no damage)” value (Rates 15, 20 DAA) was 0 and the “PANMI damage to plant (100=total damage; 0=no damage)” value (Rates 15, 20 DAA) was 0. For the same compound, the “SETFA damage to plant (100=total damage; 0=no damage)” value (Rates 15, 20 DAA) was 0, the “ABUTH damage to plant (100=total damage; 0=no damage)” value (Rates 30, 20 DAA) was 0 and the “AMARE damage to plant (100=total damage; 0=no damage)” value (Rates 30, 20 DAA) was 0. For the same compound, the “DIGSA damage to plant (100=total damage; 0=no damage)” value (Rates 30, 20 DAA) was 60, the “ECHCG damage to plant (100=total damage; 0=no damage)” value (Rates 30, 20 DAA) was 20 and the “ORYSA damage to plant (100=total damage; 0=no damage)” value (Rates 30, 20 DAA) was 0. For the same compound, the “PANMI damage to plant (100=total damage; 0=no damage)” value (Rates 30, 20 DAA) was 0, the “SETFA damage to plant (100=total damage; 0=no damage)” value (Rates 30, 20 DAA) was 0 and the “ABUTH damage to plant (100=total damage; 0=no damage)” value (Rates 60, 20 DAA) was 0. For the same compound, the “AMARE damage to plant (100=total damage; 0=no damage)” value (Rates 60, 20 DAA) was 0, the “DIGSA damage to plant (100=total damage; 0=no damage)” value (Rates 60, 20 DAA) was 80 and the “ECHCG damage to plant (100=total damage; 0=no damage)” value (Rates 60, 20 DAA) was 60. The “ORYSA damage to plant (100=total damage; 0=no damage)” value (Rates 60, 20 DAA) was 0, the “PANMI damage to plant (100=total damage; 0=no damage)” value (Rates 60, 20 DAA) was 0 and the “SETFA damage to plant (100=total damage; 0=no damage)” value (Rates 60, 20 DAA) was 10. For the same compound, the “ABUTH damage to plant (100=total damage; 0=no damage)” value (Rates 130, 20 DAA) was 0, the “AMARE damage to plant (100=total damage; 0=no damage)” value (Rates 130, 20 DAA) was 0 and the “DIGSA damage to plant (100=total damage; 0=no damage)” value (Rates 130, 20 DAA) was 90. The “ECHCG damage to plant (100=total damage; 0=no damage)” value (Rates 130, 20 DAA) was 90, the “ORYSA damage to plant (100=total damage; 0=no damage)” value (Rates 130, 20 DAA) was 0 and the “PANMI damage to plant (100=total damage; 0=no damage)” value (Rates 130, 20 DAA) was 0. For the same compound, the “SETFA damage to plant (100=total damage; 0=no damage)” value (Rates 130, 20 DAA) was 60, the “ABUTH damage to plant (100=total damage; 0=no damage)” value (Rates 250, 20 DAA) was 0 and the “AMARE damage to plant (100=total damage; 0=no damage)” value (Rates 250, 20 DAA) was 0. For the same compound, the “DIGSA damage to plant (100=total damage; 0=no damage)” value (Rates 250, 20 DAA) was 90, the “ECHCG damage to plant (100=total damage; 0=no damage)” value (Rates 250, 20 DAA) was 90 and the “ORYSA damage to plant (100=total damage; 0=no damage)” value (Rates 250, 20 DAA) was 0. For the same compound, the “PANMI damage to plant (100=total damage; 0=no damage)” value (Rates 250, 20 DAA) was 0, the “SETFA damage to plant (100=total damage; 0=no damage)” value (Rates 250, 20 DAA) was 60 and the “ABUTH damage to plant (100=total damage; 0=no damage)” value (Rates 500, 20 DAA) was 0. The “AMARE damage to plant (100=total damage; 0=no damage)” value (Rates 500, 20 DAA) was 0, the “DIGSA damage to plant (100=total damage; 0=no damage)” value (Rates 500, 20 DAA) was 90 and the “ECHCG damage to plant (100=total damage; 0=no damage)” value (Rates 500, 20 DAA) was 90. For the same compound, the “ORYSA damage to plant (100=total damage; 0=no damage)” value (Rates 500, 20 DAA) was 0, the “PANMI damage to plant (100=total damage; 0=no damage)” value (Rates 500, 20 DAA) was 0 and the “SETFA damage to plant (100=total damage; 0=no damage)” value (Rates 500, 20 DAA) was 90.
